In US9642819B2, “Low dosage serotonin 5-HT2A receptor agonist to suppress inflammation” (BOARD OF SUPERVISORS OF LOUISIANA STATE UNIVERSITY AND …, priority 2008, dated 2017):

Tested on: VCAM-1 gene expression
Assay: TNF-α induced VCAM-1 gene expression in primary rat bronchoaveolar macrophage cells
Type: cell-based
Procedure: Experiments were conducted to analyze for the effect of 5-HT2A receptor activation on proinflammatory marker expression in other cell types. Human neuroblastoma cells (SHSY5Y) and rat glioma cells (C6) can be obtained from the American Type Culture Collection (Manassas, Va.), but were provided Purdue University. The cells were grown in DMEM+10% FBS. DMEM was made and provided by the Cell and Molecular Core of the Mentoring in Cardiovascular Biology COBRE center at LSUHSC-NO. FBS was purchased from Invitrogen (Carlsbad, Calif.). Primary rat aortic endothelial cells were prepared fresh and provided by the Cell and Molecular Core of the Mentoring in Cardiovascular Biology COBRE center at LSUHSC-NO. Cells were tested at passages 3-4. Cells were grown in endothelial cell growth medium (Cell Applications, Inc.). Primary rat bronchoaveolar macrophage cells were obtained by lung lavage from rats and used at day 3 or 4 post plating in DMEM+10% FBS.
All treatments with 5-HT2A receptor agonists occurred 1 hour prior to the addition of TNF-alpha (10 ng/ml) or LPS (100 ng or 1 mg) depending on the experiment. All RNA isolations, cDNA synthesis, QPCR gene expression assays examining ICAM1, VCAM1, and IL6, and data analysis were performed as described above in Example 1, except the primers were different for the human cell experiment. […]

COc1cc(C[C@@H](C)N)c(OC)cc1I [(R)-DOI, (R)-1-(2,5-dimethoxy-4-iodophenyl)-2-aminopropane]
effect on VCAM-1 gene expression in rat bronchoaveolar macrophage cells: potently blocked
IC50 (Rattus norvegicus, Macrophage, 1 hour prior to TNF-α 10 ng/ml, read-out: IC50 for VCAM-1 gene expression inhibition in rat bronchoaveolar macrophage cells): ~0.02 nM
